Like-named read-outs stand apart in the source and are kept apart here.
How the values were obtained:
[1] = Control drug solution without bacterial cells incubated at 37° C., DPV; conditions: for Percentage of Tobramycin in Supernatant, Control: 2 mM Tobramycin in 1X PBS, 0.4% glucose without bacterial cells
Protocol: DPV measurements of 1 mM Cip were taken and after incubation, centrifugation was performed at 4000 rpm for 10 min and the supernatant was collected.
Similarly uptake of Tobramycin (2 mM), was analyzed in Pseudomonas aeruginosa also using DPV. The control solutions were tested before and after incubation at 37° C. and with different incubation times at 37° C. (i.e. 15 minutes; 30 minutes and 60 minutes). […] Integration underneath the curves provides the charge. This charge is proportional to the number of molecules transferred during DPV recordings (see FIGS. 11-14).

[2] = tested on: Pseudomonas aeruginosa PAO1 (wild type strain, containing efflux pumps); experiment: Tobramycin uptake by DPV of the supernatant, PAO1 strain; type: cell-based; conditions: for Percentage of Tobramycin in Supernatant, PAO1: 2 mM Tobramycin, 1X PBS, 0.4% glucose, 37° C., DPV on GCE at pH 3
Protocol: (§1) (i.e. 15 minutes; 30 minutes and 60 minutes). […] Integration underneath the curves provides the charge.
(§2) The uptake of another antibiotic, Tobramycin (2 mM) was analyzed in Pseudomonas aeruginosa using DPV. […] As summarized in TABLE 3, the concentration of the control remains stable over different times of incubation at 37° C. […] At 15 min, the hyper-susceptible PAO750 removes about 26% of Tobramycin, which is slightly more than the wild type. […] A concentration of 2 mM Tobramycin appears to have been too high for the cells to withstand. […] As both of these strains are not resistant to Tobramycin, cell lysis at prolonged incubation times was expected.

[3] = tested on: Pseudomonas aeruginosa PAO750 (hyper-susceptible strain, efflux pumps deleted); type: cell-based; conditions: for Percentage of Tobramycin in Supernatant, PAO750: 2 mM Tobramycin, 1X PBS, 0.4% glucose, 37° C., DPV on GCE at pH 3
Protocol: as §1, §2

[4] = tested on: A2780-s and A2780-cp ovarian cancer cells; experiment: SECM electrochemical response of ovarian cancer cells to carboplatin (FcCH2OH regeneration); type: cell-based
Protocol: Carboplatin-susceptible (A2780-s) and carboplatin-resistant (A2780-cp) ovarian cancer cells were grown in petri dishes at 37° C. until a confluence of approximately 60 to 70% was reached. Cells were exposed to a PBS solution containing 1 mM ferrocenemethanol (FcCH2OH) at 37° C. for 45 minutes. Following this incubation, the petri dish was inserted into a scanning electrochemical microscope (SECM), equipped with a camera, fluorescence unit and a heating stage. Target cells were identified using an approach curve and a horizontal line scan was carried out across the cells every 5 to 10 minutes. The solution in the petri dish was exchanged for a PBS solution containing 2 mM carboplatin and 1 mM ferrocenemethanol (FcCH2OH). Horizontal line scans were carried out every 5 to 10 minutes to record the electrochemical response by the cells.

[5] = tested on: carboplatin-susceptible and carboplatin-resistant ovarian cancer cell line; experiment: Voltammetric carboplatin uptake study in ovarian cancer cells; type: cell-based; conditions: one carboplatin-susceptible and one carboplatin-resistant cell line
Protocol: Further work was done by the inventors^45 to evaluate the electrochemical detection of chemotherapeutic uptake by ovarian cancer cells, whereby an electrochemical characterization of carboplatin was evaluated for detection limits and pH dependence. Furthermore, bioelectrochemical studies quantified carboplatin uptake by ovarian cancer cells.

[6] = tested on: Pseudomonas bacteria (PAO1 and PA262); conditions: not told
Protocol: After 25 min of incubation, the bacteria suspension is centrifuged, cells are resuspended in PBS and drop-casted onto a 3-mm glassy carbon macroelectrode (see FIG. 1D). Other macroelectrode materials, such as gold, platinum, etc. could be employed in the same way. The electrode is then placed in a KCl solution and DPV is performed at a potential rage of zero to 1.0V. This potential range would be adjusted depending on the drug of interest.
When the electrode is placed in the KCl solution, various time intervals were applied before driving the oxidation reaction at the electrode.

Compound: NC[C@H]1O[C@H](O[C@H]2[C@H](O)[C@@H](O[C@H]3O[C@H](CO)[C@@H](O)[C@H](N)[C@H]3O)[C@H](N)C[C@@H]2N)[C@H](N)C[C@@H]1O [Tobramycin]
- stability of Tobramycin control solution (DPV currents before and after incubation) ([1]; 2 mM): do not vary, indicating stable 2 mM Tobramycin concentrations
- Percentage of Tobramycin in Supernatant, Control ([1]; 15 minutes): 99%
- Percentage of Tobramycin in Supernatant, Control ([1]; 30 minutes): 99%
- Percentage of Tobramycin in Supernatant, Control ([1]; 60 minutes): 95%
- Percentage of Tobramycin in Supernatant, PAO1 ([2]; 15 minutes): 80%
- Percentage of Tobramycin in Supernatant, PAO1 ([2]; 30 minutes): 81%
- Percentage of Tobramycin in Supernatant, PAO1 ([2]; 60 minutes): 99%
- uptake observation at prolonged incubation, PAO1 ([2]; 2 mM, 60 min): A similar effect is seen in PAO1
- Tobramycin taken up from the solution by PAO1 ([2]; 2 mM, incubation times of 15 and 30 min): approximately 20%
- time to establishment of equilibrium of intracellular and extracellular Tobramycin ([2]; PAO1, 2 mM): < 15 min
- Percentage of Tobramycin in Supernatant, PAO750 ([3]; 15 minutes): 74%
- Percentage of Tobramycin in Supernatant, PAO750 ([3]; 30 minutes): 95%
- Percentage of Tobramycin in Supernatant, PAO750 ([3]; 60 minutes): 99%
- Tobramycin removed by PAO750 ([3]; 2 mM, 15 min): about 26%
- uptake observation at prolonged incubation, PAO750 ([3]; 2 mM, 30 min): the uptake is failing, probably due to cell lysis of PAO750

Compound: N.N.O=C([O-])C1(C(=O)[O-])CCC1.[Pt+2] [carboplatin]
- time for slope increase to relax back to its initial value ([4]; A2780-cp cells): 5 to 10 min
- change of slope (peak current vs scan velocity) after drug exposure ([4]; A2780-cp cells, 2 mM carboplatin, 1 mM FcCH2OH): an increase in slope right after carboplatin exposure was observed
- difference in SECM response between susceptible and resistant cells ([4]; A2780-s vs A2780-cp): A clear difference between carboplatin-susceptible and carboplatin-resistant cells
- drug uptake detected by voltammetry [5]: demonstrated the detection of carboplatin uptake

Compound: O=C(O)c1cn(C2CC2)c2cc(N3CCNCC3)c(F)cc2c1=O [ciprofloxacin]
- DPV current of drop-casted bacteria after incubation with drug (export from the bacteria) [6]: significant increase in current
- dependence of export current peak on wait time [6]: a longer wait time results in a higher current peak
